The values that follow come from patent US5098995A, “GRF Analogs VIIA” (The Salk Institute For Biological Studies, priority 1989, dated 1992).

Ends that are not written are not given here.

The subject of this assay is cells of rat pituitary glands. The experiment in a line: in vitro assay of growth hormone release from cultured rat pituitary cells, side-by-side with the hpGRF(1-40)-OH standard. In kind it is cell-based. The following applies: potency for GH release relative to hGRF(1-40)-OH standard = 1.0; equimolar concentrations; rat pituitary cell cultures; incubation 3 to 4 hours; ir GH by radioimmunoassay; limits in brackets. As for the experimental part: To determine the relative effectiveness of certain representative synthetic peptides to promote the release of growth hormone, in vitro assays are carried out using synthetic hpGRF(1-40)-OH as a standard in side-by-side comparison with equimolar concentrations of the representative analogs which have been synthesized. Cultures are used which include cells of rat pituitary glands removed some three to five days previously. Such cultures are considered optimal for the secretion of growth hormone and are used for the comparative testing, in the general manner described in Vale et al. Endocrinology, 91, 562-572 (1972) and as more particularly described in Vale et al. Endocrinology, 112, 1553-1555 (1983). Incubation with the substance to be tested is carried out for 3 to 4 hours, and aliquots of the culture medium are removed and processed to measure their contents in immunoreactive GH(ir GH) by a well-characterized radioimmunoassay.

Take “[N^a MeTyr^1, Ala^15, CMA^19, Nle^27, Asn^28 ]-hGRF(1-29)-NH2”: the “In Vitro Potencies” value is recorded as 7.07 (3.8-13.6).

Turning to “[N^a MeTyr^1, Ala^15, CML^23, Nle^27, Asn^28 ]-hGRF(1-29)-NH2”, the “In Vitro Potencies” value was 1.96 (1.1-3.3).

Consider “[N^a MeTyr^1, Ala^15, CML^26, Nle^27, Asn^28 ]-hGRF(1-29)-NH2”, for which the “In Vitro Potencies” value is recorded as 6.44 (4.0-10.3).

As to “[N^a MeTyr^1, CMA^13, Ala^15, Nle^27, Asn^28 ]-hGRF(I-29)-NH2”, the “In Vitro Potencies” value was 2.24 (1.4-3.4).

Turning to “[N^a MeTyr^1, Ala^15, CML^17, Nle^27, Asn^28 ]-hGRF(1-29)-NH2”, the “In Vitro Potencies” value is on record as 5.41 (3.5-8.3).

As to “[N^a MeTyr^1, CML^5, Ala^15, Nle^27, Asn^28 ]-hGRF(1-29)-NH2”, the “In Vitro Potencies” value is on record as 3.59 (2.3-5.5).

For “[N^a MeTyr^1, Ala^15, CML^22, Nle^27, Asn^28 ]-hGRF(1-29)-NH2”, the “In Vitro Potencies” value is listed as 7.18 (4.1-12.7).

Take “hGRF(1-40)--OH: synthetic human pancreatic/hypothalamic GH releasing factor (1-40) free acid, used as the standard in the in vitro and in vivo tests (YADAIFTNSYRKVLGQLSARKLLQDIMSRQQGESNQERGA-OH; UniProt P01286 32-71, looked up, fragment) [reference compound]”: the “In Vitro Potencies” value is 1.0.
